The numbers were not newly measured in patent US6509447B1, “G protein chimeras and methods of screening compounds” (Glaxo Welcome Inc., priority 1997, dated 2003), which cites them from elsewhere.

The data set has as its target T1, Ste2p (Saccharomyces cerevisiae, UniProt D6VTK4).
T1 sequence (D6VTK4 1-431): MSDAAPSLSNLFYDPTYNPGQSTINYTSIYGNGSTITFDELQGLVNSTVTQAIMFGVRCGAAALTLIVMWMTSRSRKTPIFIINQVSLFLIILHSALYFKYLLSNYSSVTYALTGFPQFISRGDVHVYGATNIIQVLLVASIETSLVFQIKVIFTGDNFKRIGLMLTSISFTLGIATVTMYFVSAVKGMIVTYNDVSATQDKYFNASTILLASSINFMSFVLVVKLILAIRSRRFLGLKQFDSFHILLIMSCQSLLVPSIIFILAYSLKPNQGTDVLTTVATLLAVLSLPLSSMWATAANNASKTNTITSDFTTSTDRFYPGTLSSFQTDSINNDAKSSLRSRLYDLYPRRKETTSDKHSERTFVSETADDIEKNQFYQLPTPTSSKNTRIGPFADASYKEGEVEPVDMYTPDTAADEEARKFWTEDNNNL
The note with it: literature reference (3); read-out: reported affinity of Ste2p for α-factor peptide (Kd); cited from earlier work.

Take α-factor: the Kd is 17 nM.

By Kd is commonly meant the concentration at which binding is half-saturated.
